The source of these data is article PMC10412597, “Small molecule branched-chain ketoacid dehydrogenase kinase (BDK) inhibitors with opposing effects on BDK protein levels” (Nature Communications, 2023).

Broadly, the IC50 is the midpoint of a concentration-inhibition curve. Read a high IC50 as lower potency. One may read the EC50 as the concentration at which the effect is half-maximal. High values mean a less potent agent, low ones a more potent agent.

Test [1] addresses Kdr Kinase (VEGFR2) (Homo sapiens, UniProt P35968). The test can be described thus: biochemical. Also on record: Cerep Bioprint off-target panel, enzyme or kinase inhibition. How it is done: (§1) To discover a potent and selective BDK inhibitor, a subset of the Pfizer compound collection was screened. […] Off target activity was assessed in both CEREP and kinase panels (Supplementary Tables 2, 3).

Test [2] deals with T1, Cannabinoid CB1 (Homo sapiens, UniProt P21554).
T1 construct: gene CNR1
The test can be described thus: cell-based. Also on record: Cerep Bioprint off-target panel, functional receptor agonism or antagonism. How it is done:
as §1

Chain of Kdr Kinase (VEGFR2) (P35968 whole entry): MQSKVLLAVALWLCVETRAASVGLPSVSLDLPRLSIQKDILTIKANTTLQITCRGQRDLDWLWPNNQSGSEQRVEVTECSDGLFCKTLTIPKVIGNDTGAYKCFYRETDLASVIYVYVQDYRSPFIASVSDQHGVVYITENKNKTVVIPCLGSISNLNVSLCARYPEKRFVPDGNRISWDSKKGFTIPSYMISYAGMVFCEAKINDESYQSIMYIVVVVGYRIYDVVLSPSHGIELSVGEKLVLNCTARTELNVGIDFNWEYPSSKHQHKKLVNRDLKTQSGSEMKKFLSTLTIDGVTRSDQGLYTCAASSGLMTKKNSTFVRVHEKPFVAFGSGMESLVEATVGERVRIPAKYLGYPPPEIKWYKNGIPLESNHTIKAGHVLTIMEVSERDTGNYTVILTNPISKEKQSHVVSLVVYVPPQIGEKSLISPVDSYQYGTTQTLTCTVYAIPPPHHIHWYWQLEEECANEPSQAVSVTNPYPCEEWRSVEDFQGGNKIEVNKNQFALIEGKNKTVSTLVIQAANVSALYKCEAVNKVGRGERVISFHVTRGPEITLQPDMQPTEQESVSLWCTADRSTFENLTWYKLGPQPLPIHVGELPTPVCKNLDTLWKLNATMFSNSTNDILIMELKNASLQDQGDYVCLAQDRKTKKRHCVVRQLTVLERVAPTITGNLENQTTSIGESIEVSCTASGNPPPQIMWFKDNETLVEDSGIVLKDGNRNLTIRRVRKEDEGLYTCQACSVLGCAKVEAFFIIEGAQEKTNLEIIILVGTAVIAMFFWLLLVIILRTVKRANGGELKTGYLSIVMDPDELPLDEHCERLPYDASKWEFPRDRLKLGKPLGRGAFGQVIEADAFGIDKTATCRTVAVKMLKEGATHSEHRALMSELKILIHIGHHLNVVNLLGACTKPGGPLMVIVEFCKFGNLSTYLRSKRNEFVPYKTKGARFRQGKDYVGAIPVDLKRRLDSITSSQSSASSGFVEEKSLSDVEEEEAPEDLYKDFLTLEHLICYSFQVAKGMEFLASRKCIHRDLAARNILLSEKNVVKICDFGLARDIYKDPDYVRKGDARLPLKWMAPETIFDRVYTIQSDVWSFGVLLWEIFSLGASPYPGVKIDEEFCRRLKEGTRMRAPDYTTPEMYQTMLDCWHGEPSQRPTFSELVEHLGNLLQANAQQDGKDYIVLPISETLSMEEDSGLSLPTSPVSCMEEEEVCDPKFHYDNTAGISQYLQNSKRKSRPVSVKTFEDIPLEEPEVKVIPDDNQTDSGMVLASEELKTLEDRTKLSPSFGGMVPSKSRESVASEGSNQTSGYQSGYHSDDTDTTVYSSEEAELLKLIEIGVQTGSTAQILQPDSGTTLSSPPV
T1 sequence (P21554 whole entry): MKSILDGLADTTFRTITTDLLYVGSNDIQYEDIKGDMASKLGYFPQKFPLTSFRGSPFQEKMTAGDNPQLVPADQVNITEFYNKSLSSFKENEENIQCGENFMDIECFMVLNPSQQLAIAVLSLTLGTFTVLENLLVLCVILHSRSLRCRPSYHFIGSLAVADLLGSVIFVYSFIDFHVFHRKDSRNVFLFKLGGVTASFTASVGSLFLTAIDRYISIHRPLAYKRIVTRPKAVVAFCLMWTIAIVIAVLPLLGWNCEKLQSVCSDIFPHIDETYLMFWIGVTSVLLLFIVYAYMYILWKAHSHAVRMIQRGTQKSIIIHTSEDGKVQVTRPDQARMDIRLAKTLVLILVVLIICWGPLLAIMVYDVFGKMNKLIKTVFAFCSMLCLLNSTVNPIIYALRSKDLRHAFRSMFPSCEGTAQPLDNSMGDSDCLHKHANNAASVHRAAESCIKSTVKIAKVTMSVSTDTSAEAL

As for `O=C(O)c1sc2cc(F)sc2c1Cl` [PF-07208254, 3-chloro-5-fluorothieno[3,2-b]thiophene-2-carboxylic acid], the midpoint of inhibition in test [1], the IC50, lay at 76 µM. Also, the response in test [2] was half-maximal at 180 µM (EC50).
